This is an account of results in ChEMBL document CHEMBL4483862, “Open-source discovery of chemical leads for next-generation chemoprotective antimalarials” (2018).

This assay has as its system Plasmodium berghei. The assay can be described thus: Luciferase/luciferin-expressing antifolate-resistant parasites were used to infect a culture of HepG2 cells that were pre-incubated with compounds. Infected hepatocytes emit light due to the luciferase reaction. Assay results are presented as the percent inhibition of light emission compared to control. […]. To be noted: sporozoite; for IC90: read-out: LUCIFERASE INFECTION ASSAY - IC90. The class given is functional.

The mark [1] stands for this setting: read-out: LUCIFERASE INFECTION ASSAY - IC50.

The term IC50 denotes the midpoint of a concentration-inhibition curve. Usually IC90 stands for the concentration at which the effect reaches the 90% level.

Take `CC(C)c1ccc(Nc2nccc3nc(-c4cccc(C(C)C)c4)[nH]c23)cc1`: the IC90 is > 10 µM. Moreover, the half-maximal inhibitory concentration (IC50) (HEPG2TOX_HILL_SLOPE 1.74, HEPG2TOX_R_SQUARED 0.684, PBLUC_HILL_SLOPE 1.1, PBLUC_R_SQUARED 0.805, read-out: LUCIFERASE INFECTION ASSAY - IC50) came to 2.41 µM.
Turning to `COc1ccc(-c2cnc3ccc(NCc4ccc(S(N)(=O)=O)cc4)nn23)cn1`, the 90% effect concentration (IC90) was > 8.04 µM. The IC50 (HEPG2TOX_HILL_SLOPE 2.67, HEPG2TOX_R_SQUARED 0.289, PBLUC_HILL_SLOPE 3.8, PBLUC_R_SQUARED 0.626, read-out: LUCIFERASE INFECTION ASSAY - IC50) came out at 4.71 µM.
In the case of `Cc1ccc(-n2c(SCC(=O)N3c4ccc(S(N)(=O)=O)cc4CC3C)nc3ccccc32)cc1` (stereo unspecified), the concentration for an effect of 90% (IC90) was > 10 µM. Further, where the note is “FFLUC_HILL_SLOPE 2.97, FFLUC_R_SQUARED 0.377, PBLUC_HILL_SLOPE 1.55, PBLUC_R_SQUARED 0.53, read-out: LUCIFERASE INFECTION ASSAY - IC50”, the 50% inhibitory concentration (IC50) came to 5.31 µM.
`O=C(Nc1nc(-c2ccc(F)cc2)cs1)c1cccc(S(=O)(=O)N2CCc3ccccc32)c1`: the IC90 is > 10 µM. Besides, the half-inhibitory concentration (IC50) under setting [1] is > 10 µM.
`Cc1nc2c3ccccc3nc(SCC(=O)Nc3ccccc3)n2n1`: the IC90 turned out to be 1.43 µM. Besides, the half-inhibitory concentration (IC50) (HEPG2TOX_HILL_SLOPE 1.21, HEPG2TOX_R_SQUARED 0.956, PBLUC_HILL_SLOPE 1.03, PBLUC_R_SQUARED 0.933, read-out: LUCIFERASE INFECTION ASSAY - IC50) stood at 0.169 µM.
Take `C=CCn1c(COc2cc(C)ccc2C(C)C)nnc1SCC(=O)NCC12CC3CC(CC(C3)C1)C2`: the 90% effect concentration (IC90) is > 10 µM. Also, for the setting “PBLUC_HILL_SLOPE 17.6, PBLUC_R_SQUARED 0.542, read-out: LUCIFERASE INFECTION ASSAY - IC50”, the IC50 was 9.43 µM.
As to `CCOC(=O)c1c(C)noc1/C(C)=N/OC(=O)Nc1cccc(C(F)(F)F)c1`, the IC90 was 3.98 µM. The IC50 (FFLUC_HILL_SLOPE 1.36, FFLUC_R_SQUARED 0.14, PBLUC_HILL_SLOPE 8.59, PBLUC_R_SQUARED 0.59, read-out: LUCIFERASE INFECTION ASSAY - IC50) was 3.08 µM.
Take `CC(=O)Nc1ccc(OC(=O)c2cc(C(C)(C)C)nn2Cc2c(C)cc(C)cc2C)cc1`: the 90% effect concentration (IC90) is 3.69 µM. Also, the IC50 (FFLUC_HILL_SLOPE 42.8, FFLUC_R_SQUARED 0.589, PBLUC_HILL_SLOPE 8.27, PBLUC_R_SQUARED 0.64, read-out: LUCIFERASE INFECTION ASSAY - IC50) was determined as 2.83 µM.
Consider `Cc1cc(C)c(-c2csc(NC(=O)c3nnc(O)c4ccccc34)n2)c(C)c1`, for which the concentration for an effect of 90% (IC90) is 5.46 µM. Under setting [1], the IC50 worked out at 3.82 µM.
Consider `CC(C)(C)c1ccc(NC(=O)c2ccc(CCNS(C)(=O)=O)cc2)cc1`, for which the IC90 came to 3.46 µM. Moreover, where the note is “HEPG2TOX_HILL_SLOPE 2.32, HEPG2TOX_R_SQUARED 0.971, PBLUC_HILL_SLOPE 55.7, PBLUC_R_SQUARED 0.572, read-out: LUCIFERASE INFECTION ASSAY - IC50”, the IC50 is 3.32 µM.
As for `CC(C)c1ccccc1NC(=O)Nc1nc(C(N)C2CCCCC2)cs1` (stereo unspecified), the IC90 is 8 µM. Where the note is “HEPG2TOX_HILL_SLOPE 0.21, HEPG2TOX_R_SQUARED 0.263, PBLUC_HILL_SLOPE 31.8, PBLUC_R_SQUARED 0.686, read-out: LUCIFERASE INFECTION ASSAY - IC50”, the IC50 is 7.47 µM.
On to `CCN(c1ccccc1)S(=O)(=O)c1ccc(C(=O)NCC(c2ccccc2OC)N2CCCC2)cc1` (stereo unspecified), for which the concentration for an effect of 90% (IC90) worked out at 3.69 µM. Besides, the IC50 (HEPG2TOX_HILL_SLOPE 12.4, HEPG2TOX_R_SQUARED 0.631, PBLUC_HILL_SLOPE 22.9, PBLUC_R_SQUARED 0.104, read-out: LUCIFERASE INFECTION ASSAY - IC50) was 3.36 µM.
Consider `Cc1ccc(C(C)CCN2CCC3(CC2)C(=O)N(C2Cc4ccccc4C2)C(=O)N3CC(C)C)o1` (stereo unspecified), for which the concentration for an effect of 90% (IC90) is > 6.91 µM. Under “HEPG2TOX_HILL_SLOPE 5.24, HEPG2TOX_R_SQUARED 0.932, PBLUC_HILL_SLOPE 15.5, PBLUC_R_SQUARED 0.389, read-out: LUCIFERASE INFECTION ASSAY - IC50”, the concentration for half-maximal inhibition (IC50) came to 6.38 µM.
For `CC(C)c1ccc(NC(=O)c2snc3ccc(Cl)cc23)cc1`, the IC90 was 6.63 µM. Moreover, the half-inhibitory concentration (IC50) (HEPG2TOX_HILL_SLOPE 2.78, HEPG2TOX_R_SQUARED 0.915, PBLUC_HILL_SLOPE 3.55, PBLUC_R_SQUARED 0.653, read-out: LUCIFERASE INFECTION ASSAY - IC50) is 3.57 µM.
Consider `COc1cccc(-c2cnn3ccc(Nc4cc(OC)c(OC)c(OC)c4)nc23)c1`, for which the IC90 was found to be 3.34 µM. Besides, the concentration for half-maximal inhibition (IC50) (HEPG2TOX_HILL_SLOPE 6.32, HEPG2TOX_R_SQUARED 0.972, PBLUC_HILL_SLOPE 10.3, PBLUC_R_SQUARED 0.636, read-out: LUCIFERASE INFECTION ASSAY - IC50) was determined as 2.7 µM.
For the compound `COc1ccc(-c2cnc3sc(NCCc4ccncc4)nn23)cn1`, the 90% effect concentration (IC90) was > 9.36 µM. In addition, the half-maximal inhibitory concentration (IC50) under setting [1] is > 9.36 µM.
On to `COc1cc(/C=C/C(=O)c2ccc(C3CCCCC3)cc2)cc(Br)c1OCC(=O)N(C)C`, for which the 90% effect concentration (IC90) is 3.59 µM. The IC50 (HEPG2TOX_HILL_SLOPE 2.02, HEPG2TOX_R_SQUARED 0.972, PBLUC_HILL_SLOPE 3.75, PBLUC_R_SQUARED 0.69, read-out: LUCIFERASE INFECTION ASSAY - IC50) worked out at 2 µM.
Turning to `CS(=O)(=O)N1CCCC(C(=O)NC(c2ccccc2)C2CCCCC2)C1` (stereo unspecified), the 90% effect concentration (IC90) was > 10 µM. The IC50 under setting [1] was > 10 µM.
With `c1ccc2cc(C3=NNC(=NC4CC4)SC3)ccc2c1`, the IC90 came to 0.0194 µM. The IC50 (FFLUC_HILL_SLOPE 2.37, FFLUC_R_SQUARED 0.781, HEPG2TOX_HILL_SLOPE 1.63, HEPG2TOX_R_SQUARED 0.913, PBLUC_HILL_SLOPE 5.38, PBLUC_R_SQUARED 0.229, read-out: LUCIFERASE INFECTION ASSAY - IC50) worked out at 0.0129 µM.
Turning to `CN(C)C1(CNC(=O)c2ccc(Cl)c(S(=O)(=O)N(C)c3ccc(Cl)cc3)c2)CCCCC1`, the IC90 is > 10 µM. For the same compound, where the note is “PBLUC_HILL_SLOPE 3.05, PBLUC_R_SQUARED 0.312, read-out: LUCIFERASE INFECTION ASSAY - IC50”, the 50% inhibitory concentration (IC50) is 8.97 µM.
Regarding `Cc1nn2c(=O)cc(-c3ccccc3)[nH]c2c1-c1ccc(F)cc1`, the IC90 was 1.16 µM. Moreover, the IC50 (HEPG2TOX_HILL_SLOPE 1.12, HEPG2TOX_R_SQUARED 0.564, PBLUC_HILL_SLOPE 22.2, PBLUC_R_SQUARED 0.649, read-out: LUCIFERASE INFECTION ASSAY - IC50) amounted to 1.05 µM.
With `O=C1C=CC(=O)N1c1ccc(-c2csnn2)cc1`, the concentration for an effect of 90% (IC90) is > 12.8 µM. Moreover, the IC50 (FFLUC_HILL_SLOPE 14.6, FFLUC_R_SQUARED 0.441, read-out: LUCIFERASE INFECTION ASSAY - IC50) was > 12.8 µM.
As for `NC(c1csc(NC(=O)Nc2cccc3ccccc23)n1)C1CCCCC1` (stereo unspecified), the IC90 was > 8.67 µM. In addition, under setting [1], the IC50 is > 8.67 µM.
As to `Cc1nnc(NC(=O)c2cn(-c3ccccc3)nc2-c2ccccc2C)o1`, the IC90 worked out at 0.255 µM. Further, the IC50 (HEPG2TOX_HILL_SLOPE 0.258, HEPG2TOX_R_SQUARED 0.871, PBLUC_HILL_SLOPE 2.72, PBLUC_R_SQUARED 0.839, read-out: LUCIFERASE INFECTION ASSAY - IC50) stood at 0.114 µM.
On to `CN(C)c1ccc(CNCC2(c3ccnc(-c4ccc(Cl)cc4)c3)CC2)cc1`, for which the IC90 is > 10 µM. In addition, the IC50 (PBLUC_HILL_SLOPE 2.32, PBLUC_R_SQUARED 0.214, read-out: LUCIFERASE INFECTION ASSAY - IC50) came out at 6.36 µM.
As for `CCCCn1c(N)c(N(CC(C)C)C(=O)CCc2ncc(-c3ccc(C)cc3)o2)c(=O)[nH]c1=O`, the IC90 is > 10 µM. Under setting [1], the IC50 is > 10 µM.
As to `CCNc1ccc(S(=O)(=O)C(F)(F)F)cc1NC(=O)c1ccccc1NS(=O)(=O)c1ccc(F)cc1`, the IC90 is > 10 µM. Further, the concentration for half-maximal inhibition (IC50) under setting [1] worked out at 1.44 µM.
As to `Clc1ccc(CN2CCN(c3ncnc4sccc34)CC2)s1`, the 90% effect concentration (IC90) was > 10 µM. The concentration for half-maximal inhibition (IC50) (HEPG2TOX_HILL_SLOPE 8.99, HEPG2TOX_R_SQUARED 0.725, PBLUC_HILL_SLOPE 4.78, PBLUC_R_SQUARED 0.254, read-out: LUCIFERASE INFECTION ASSAY - IC50) turned out to be 8.3 µM.
In the case of `Cc1cc(CN(C)CC(=O)Nc2sc3c(c2C(=O)Nc2ccc(Cl)cc2)CCCC3)no1`, the IC90 is > 10 µM. Besides, the 50% inhibitory concentration (IC50) (FFLUC_HILL_SLOPE 4.26, FFLUC_R_SQUARED 0.612, PBLUC_HILL_SLOPE 24.8, PBLUC_R_SQUARED 0.242, read-out: LUCIFERASE INFECTION ASSAY - IC50) came out at 9.19 µM.
Turning to `CCCc1cc(-n2ccnc2)n2ncc(-c3ccccc3)c2n1`, the concentration for an effect of 90% (IC90) is > 10.9 µM. For the setting “PBLUC_HILL_SLOPE 1.29, PBLUC_R_SQUARED 0.543, read-out: LUCIFERASE INFECTION ASSAY - IC50”, the IC50 came to 5.89 µM.
`O=C1/C(=C/c2cc(Cl)ccc2O)NC(=S)N1Cc1ccccc1Cl`: the 90% effect concentration (IC90) is 1.37 µM. Besides, the IC50 (HEPG2TOX_HILL_SLOPE 1.93, HEPG2TOX_R_SQUARED 0.989, PBLUC_HILL_SLOPE 8.09, PBLUC_R_SQUARED 0.926, read-out: LUCIFERASE INFECTION ASSAY - IC50) was determined as 1.05 µM.
Consider `COc1ccc(CNC(=O)N(C)CCOc2ccc(OC)cc2)cc1`, for which the IC90 was > 10 µM. Also, where the note is “FFLUC_HILL_SLOPE 0.273, FFLUC_R_SQUARED 0.253, HEPG2TOX_HILL_SLOPE 16.5, HEPG2TOX_R_SQUARED 0.443, PBLUC_HILL_SLOPE 9.82, PBLUC_R_SQUARED 0.776, read-out: LUCIFERASE INFECTION ASSAY - IC50”, the IC50 amounted to 8.44 µM.
`NS(=O)(=O)c1ccc(CCNc2nn3c(-c4cccc(Cl)c4)cnc3s2)cc1`: the concentration for an effect of 90% (IC90) was > 7.6 µM. For the same compound, the IC50 (FFLUC_HILL_SLOPE 1.14, FFLUC_R_SQUARED 0.295, read-out: LUCIFERASE INFECTION ASSAY - IC50) is > 7.6 µM.
